Data on 8 compounds can be found in patent US20210238187A1, “AZIRIDINE CONTAINING EPOTHILONE ANALOGS, METHODS OF SYNTHESIS, METHODS OF TREATMENT, AND DRUG CONJUGATES” (WILLIAM MARSH RICE UNIVERSITY, priority 2017, published 2021).

Where two headings read alike, the source gives them in different places. Non-standard residues stand in square brackets, D forms with d. Residues, ends and D or L forms follow the SMILES beside them. *: point of attachment. Dolaproine = CO[C@@H]([C@@H]1CCCN1)[C@@H](C)C(=O)O; Dil = CC[C@H](C)[C@H](NC)[C@@H](CC(=O)O)OC; X1 = C[C@@H](N*)[C@@H](O)c1ccccc1; NMeV = CN[C@H](C(=O)O)C(C)C

Data set [1] relates to MES SA. The data set can be described thus: Cytotoxicity assay (CellTiter-Glo), MES SA. In kind it is cell-based, human. As to conditions: read-out: Cancer cell lines IC50, MES SA. In general terms: Cellular ATP, detected with luciferase, serves as a proxy for viable cell number.
Data set [2] relates to MES SA DX. Kind of data set: Cytotoxicity assay (CellTiter-Glo), MES SA DX. Format: cell-based, human. To be noted: read-out: Cancer cell lines IC50, MES SA DX.
Data set [3] relates to MES SA, MES SA DX, and HEK 293T. Kind of data set: Cytotoxicity (IC50), summary over MES SA, MES SA DX and HEK 293T. Format: cell-based, human. To be noted: read-out: IC50 against all three cell lines (summary of Table 4).
Data set [4] deals with Tubulin. Kind of data set: Tubulin assembly induction. In kind it is biochemical.
In data set [5] the test system is MCF-7. The data set can be described thus: Cytotoxicity (GI50) assay, MCF-7. Format: cell-based, human.
For data set [6], the system named is OVCAR-8. Kind of data set: Cytotoxicity (GI50) assay, OVCAR-8. Format: cell-based, human.
The subject of data set [7] is NCI/ADR-RES. Kind of data set: Cytotoxicity (GI50) assay, NCI/ADR-RES. Format: cell-based, human. As to conditions: Homo sapiens, NCI/ADR-RES, read-out: Cancer cell lines GI50, NCI/ADR-RES.
Data set [8] deals with MDA-MB-435. Kind of data set: Cytotoxicity (GI50) assay, MDA-MB-435. In kind it is cell-based, human.
The subject of data set [9] is SNB-75. Kind of data set: Cytotoxicity (GI50) assay, SNB-75. In kind it is cell-based, human.
Data set [10] deals with HEK 293T. Kind of data set: Cytotoxicity assay (CellTiter-Glo), HEK 293T. Format: cell-based. As to conditions: Homo sapiens, 72 h, read-out: Cancer cell lines IC50, HEK 293T.
Data set [11] has as its system human cancer cell lines. Kind of data set: cells. To be noted: read-out: GI50, range over the cell lines of Table 3.
For data set [12], the system named is human cancer cell lines.
Where [13] appears, read: human uterine sarcoma cell line, 72 hours, CellTiter-Glo.
Where [14] appears, read: Homo sapiens, MCF7, read-out: Cancer cell lines GI50, MCF-7.
The mark [15] stands for this setting: Homo sapiens, OVCAR-8, read-out: Cancer cell lines GI50, OVCAR-8.
[16] abbreviates: Homo sapiens, MDA-MB-435, read-out: Cancer cell lines GI50, MDA-MB-435.
The mark [17] stands for this setting: Homo sapiens, SNB-75, read-out: Cancer cell lines GI50, SNB-75.
Where [18] appears, read: MCF7, human breast cancer cell line, concentration required to decrease cell growth by 50%, read-out: Cancer cell lines GI50, MCF-7.
[19] abbreviates: OVCAR-8, human ovarian cancer cell line, read-out: Cancer cell lines GI50, OVCAR-8.
[20] abbreviates: MES-SA, human uterine sarcoma cell line, 72 hours, CellTiter-Glo.
[21] abbreviates: highly drug resistant human ovarian cancer cell line.
Setting [22] is: MDA-MB-435, human melanoma cell line, read-out: Cancer cell lines GI50, MDA-MB-435.
The mark [23] stands for this setting: SNB-75, human glioblastoma cell line, read-out: Cancer cell lines GI50, SNB-75.
Setting [24] is: Homo sapiens, MES SA cell line with marked multidrug resistance, 72 hours, CellTiter-Glo.

By IC50 is commonly meant the concentration that inhibits the measured activity by half. With `CC[C@H](C)[C@@H]([C@@H](CC(=O)N1CCC[C@H]1[C@H](OC)[C@@H](C)C(=O)N[C@H](C)[C@@H](O)c1ccccc1)OC)N(C)C(=O)[C@@H](NC(=O)[C@@H](NC)C(C)C)C(C)C` [MMAE, monomethyl auristatin E, reference compound] (H-[NMeV]V[Dil][Dolaproine]-X1), the half-maximal inhibitory concentration (IC50) in data set [1] (setting [13]) is 0.096 nM; in data set [2], 88.2 nM; in data set [3] it was no less than 0.068 nM.

A word on the EC50: it is the midpoint of the concentration-response curve. Low values mean higher potency in that assay, high ones lower potency in that assay. In the case of `CSc1nc(/C=C(\C)[C@@H]2C[C@@H]3N(CCS)[C@]3(C)CCC[C@H](C)[C@H](O)[C@@H](C)C(=O)C(C)(C)[C@@H](O)CC(=O)O2)cs1` (stereo partly drawn) [compound 35, (1S,3S,7S,10R,11S,12S,16R)-7,11-Dihydroxy-8,8,10,12,16-pentamethyl-3-{(1E)-1-[2-(methyl-sulfanyl)-1,3-thiazol-4-yl]prop-1-en-2-yl}-17-(2-sulfanylethyl)-4-oxa-17-azabicyclo[14.1.0]-heptadecane-5,9-dione], the EC50 in data set [4] ([…]) was greater than 60000 nM. Moreover, the GI50 in [5] (setting [14]) was 39 nM; in [6] (setting [15]), 19 nM; in data set [7], 30 nM; in data set [8] (setting [16]), 5.5 nM; in data set [9] (setting [17]), 32 nM. Moreover, the IC50 stood at 1.48 nM in data set [1] (Homo sapiens, MES-SA, 72 h); 17 nM in [2] (Homo sapiens, MES-SA, 72 h); 0.34 nM in data set [10].

Compound `CSc1cc(/C=C(\C)[C@@H]2C[C@@H]3N[C@]3(C)CCC[C@H](C)[C@H](O)[C@@H](C)C(=O)C(C)(C)[C@@H](O)CC(=O)O2)nn1C` [compound 40, (1S,3S,7S,10R,11S,12S,16R)-7,11-Dihydroxy-8,8,10,12,16-pentamethyl-3-{(1E)-1-[1-methyl-5-(methylsulfanyl)-1H-pyrazol-3-yl]prop-1-en-2-yl}-4-oxa-17-azabicyclo[14.1.0]heptadecane-5,9-dione] showed an EC50 in data set [4] ([…]) of 19000 nM. Also, the GI50 in data set [5] (setting [14]) is 3.5 nM; in [6] (setting [15]), 100 nM; in data set [7], 140 nM; in data set [8] (setting [16]) it was 3.5 nM; in data set [9] (setting [17]), 14 nM. In addition, the IC50 in data set [1] (Homo sapiens, MES-SA, 72 h) came out at 0.36 nM; in [2] (Homo sapiens, MES-SA, 72 h), 41.6 nM; in [10], 0.59 nM.

In the case of `CSc1cc(/C=C(\C)[C@@H]2C/C=C(/C)CCC[C@H](C)[C@H](O)[C@@H](C)C(=O)C(C)(C)[C@@H](O)CC(=O)O2)nn1C` [compound 73, (4S,7R,8S,9S,13Z,16S)-4,8-Dihydroxy-5,5,7,9,13-pentamethyl-16-{(1E)-1-[1-methyl-5-(methylsulfanyl)-1H-pyrazol-3-yl]prop-1-en-2-yl}oxacyclohexadec-13-ene-2,6-dione], it took 9300 nM to reach a half-maximal effect in data set [4] (EC50). Also, the GI50 in data set [5] (setting [18]) was 5 nM; in data set [6] (setting [19]), 22 nM; in data set [7] it was 52 nM; in [11] it was 5 to 52 nM. For the same compound, the IC50 in data set [1] (setting [20]) was 24.1 nM; in [2] (Homo sapiens, MES-SA, 72 h), 39.2 nM; in data set [3] (Homo sapiens) it was 0.17 to 39.2 nM.

With `CC(=O)[C@@H]1C[C@@H]2N[C@]2(C)CCC[C@H](C)[C@H](O)[C@@H](C)C(=O)C(C)(C)[C@@H](O)CC(=O)O1` [compound 79, (1S,3S,7S,10R,11S,12S,16R)-3-Acetyl-7,11-dihydroxy-8,8,10,12,16-pentamethyl-4-oxa-17-azabicyclo[14.1.0]heptadecane-5,9-dione], in [4] ([…]), the EC50 is greater than 60000 nM. Moreover, the GI50 in [5] (setting [14]), in data set [6] (setting [15]), in data set [7], in data set [8] (setting [16]) and in [9] (setting [17]) was greater than 5000 nM each time. In addition, the IC50 in data set [1] (Homo sapiens, MES-SA, 72 h) was greater than 2500 nM; in data set [2] (Homo sapiens, MES-SA, 72 h) it was greater than 2500 nM; in data set [10], greater than 2500 nM.

`CC(=O)[C@@H]1C[C@@H]2N(CCO)[C@]2(C)CCC[C@H](C)[C@H](O)[C@@H](C)C(=O)C(C)(C)[C@@H](O)CC(=O)O1` (stereo partly drawn) [compound 81, (1S,3S,7S,10R,11S,12S,16R)-3-Acetyl-7,11-dihydroxy-17-(2-hydroxyethyl)-8,8,10,12,16-penta-methyl-4-oxa-17-azabicyclo[14.1.0]heptadecane-5,9-dione] came in with a concentration giving a half-maximal response (EC50) in data set [4] ([…]) greater than 60000 nM. Also, the GI50 in [5] (setting [18]) was 580 nM; in data set [6] (setting [19]), 550 nM; in [7] (setting [21]), greater than 5000 nM; in [8] (setting [22]), 200 nM; in [9] (setting [23]), 360 nM. The figures for the IC50 in data set [1] (setting [20]) and in data set [2] (setting [24]) were 36.1 nM and greater than 400 nM, respectively. In addition, the “cytotoxicity (in words)” value in [12] is “significant cytotoxicity”.

`CC(=O)O[C@H]1C(=O)[C@@]2(C)[C@H]([C@H](OC(=O)c3ccccc3)[C@]3(O)C[C@H](OC(=O)[C@H](O)[C@@H](NC(=O)c4ccccc4)c4ccccc4)C(C)=C1C3(C)C)[C@]1(OC(C)=O)CO[C@@H]1C[C@@H]2O` [paclitaxel, reference compound] gave an EC50 in [4] ([…]) of 15000 nM. For the same compound, the GI50 stood at 7.8 nM in [5] (setting [18]); 26 nM in data set [6] (setting [19]); 4800 nM in [7] (setting [21]); 5 nM in data set [8] (setting [22]); 15 nM in [9] (setting [23]). Moreover, the IC50 in data set [1] (setting [20]) was 2.47 nM; in data set [2] (setting [24]), greater than 400 nM; in [3] (Homo sapiens), no less than 1.76 nM.

Turning to “N-acetyl calicheamicin γ1^1 [NAC, reference compound]”, the IC50 in data set [1] (setting [13]) is 0.364 nM; in [2], 15.3 nM; in [3], no less than 0.166 nM.
